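Test compounds were applied to cells in 96-well plates for 48 hours at 5 doses. GI50 = concentration required for 50% inhibition of growth. TGI marks complete inhibition of growth.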

The results in this text go back to PubChem BioAssay (NCI).

Test systems include ACHN renal; HCC-2998 colon; HCT-15 colon; HS 578T breast; LOX IMVI melanoma; M14 melanoma; MDA-MB-435; NCI-H460 lung; OVCAR-8 ovarian; SNB-19 CNS.
What all share (assay): NCI-60 cell line screen, 48 h

As to `CC1=NN(c2cccc(Cl)c2)C2(C1)C(Cl)C(=O)N2c1nc2ccccc2s1` (stereo not given), the TGI in the assay with ACHN renal is greater than 100 µM; in the assay with HCC-2998 colon, greater than 100 µM; with HCT-15 colon it was greater than 100 µM; in the assay with HS 578T breast, greater than 100 µM; in the assay on LOX IMVI melanoma, 34.9 µM; in the assay with M14 melanoma, 64.1 µM. Further, the TGI with MDA-MB-435, in the assay on NCI-H460 lung, in the assay on OVCAR-8 ovarian and with SNB-19 CNS was greater than 100 µM in each case.
With `Cc1c(-c2ccccc2)c(C#N)c2nnn(-c3ccccc3)c(=O)n12`, the TGI with ACHN renal, with HCC-2998 colon, in the assay with HCT-15 colon, in the assay on HS 578T breast, with LOX IMVI melanoma and in the assay with M14 melanoma was greater than 100 µM throughout. The TGI in the assay on MDA-MB-435, in the assay on NCI-H460 lung, in the assay with OVCAR-8 ovarian and in the assay on SNB-19 CNS was greater than 100 µM throughout.
Regarding `CCOC(=O)C(=[N+]=[N-])C(=O)C[N+]12CCN(CC1)CC2`, the TGI with ACHN renal, in the assay on HCC-2998 colon, in the assay with HCT-15 colon, with HS 578T breast, in the assay with LOX IMVI melanoma and in the assay on M14 melanoma was greater than 100 µM each time. Further, the TGI with MDA-MB-435, in the assay on NCI-H460 lung, with OVCAR-8 ovarian and with SNB-19 CNS was greater than 100 µM throughout.
With `CN(Cc1c2ccccc2cc2ccccc12)S(=O)(=O)c1ccc(-c2c3nc(c(-c4ccc(S(=O)(=O)N(C)Cc5c6ccccc6cc6ccccc56)cc4)c4ccc([nH]4)c(-c4ccc(S(=O)(=O)N(C)Cc5c6ccccc6cc6ccccc56)cc4)c4nc(c(-c5ccc(S(=O)(=O)N(C)Cc6c7ccccc7cc7ccccc67)cc5)c5ccc2[nH]5)C=C4)C=C3)cc1`, the TGI in the assay on ACHN renal, with HCC-2998 colon, in the assay with HCT-15 colon, in the assay with HS 578T breast, in the assay with LOX IMVI melanoma and in the assay with M14 melanoma was greater than 100 µM each time. Further, the TGI in the assay with MDA-MB-435, in the assay on NCI-H460 lung, in the assay on OVCAR-8 ovarian and in the assay with SNB-19 CNS was greater than 100 µM in each case.
For the compound `Cc1cccc2c1C(=O)C1(Cc3ccccc3C1=O)C2` (stereo not given), the TGI in the assay with ACHN renal, in the assay on HCC-2998 colon, with HCT-15 colon, in the assay on HS 578T breast, in the assay with LOX IMVI melanoma and in the assay on M14 melanoma was greater than 100 µM in each case. The TGI in the assay on MDA-MB-435, in the assay with NCI-H460 lung, in the assay on OVCAR-8 ovarian and in the assay on SNB-19 CNS was greater than 100 µM each time.
Take `COc1cc(/C=C2\C[C@H]3[C@@H]4CC=C5C[C@@H](N6CCCC6)CC[C@]5(C)[C@H]4CC[C@]3(C)[C@H]2O)cc(OC)c1OC`: the TGI was determined as 29.3 µM in the assay with ACHN renal; 20.7 µM in the assay on HCC-2998 colon; 26.5 µM in the assay on HCT-15 colon; 25.2 µM in the assay with HS 578T breast; 20.8 µM in the assay on LOX IMVI melanoma; 4.74 µM in the assay with M14 melanoma. Moreover, the TGI in the assay on MDA-MB-435 was 18.5 µM; in the assay with NCI-H460 lung, 13.6 µM; in the assay with OVCAR-8 ovarian it was 23.4 µM; in the assay with SNB-19 CNS, 35.8 µM.
In the case of `CC/C(Cl)=N\OC(=O)Nc1ccc(OC)cc1`, the TGI with ACHN renal is 3.5 µM; in the assay with HCC-2998 colon, 15.7 µM; with HCT-15 colon, 3.12 µM; in the assay on HS 578T breast, 52 µM; with LOX IMVI melanoma, 4.89 µM; in the assay on M14 melanoma, 9.77 µM. In addition, the TGI with MDA-MB-435 turned out to be 25.8 µM; with NCI-H460 lung it was 44.9 µM; in the assay with OVCAR-8 ovarian, 37.4 µM; in the assay on SNB-19 CNS it was 56.2 µM.
Regarding `COc1cc(Oc2nc3ccccc3nc2C(=O)O)cc(OC)c1OC`, the TGI in the assay with ACHN renal, in the assay on HCC-2998 colon, in the assay with HCT-15 colon, in the assay with HS 578T breast, in the assay on LOX IMVI melanoma and in the assay on M14 melanoma was greater than 100 µM throughout. Also, the TGI with MDA-MB-435, in the assay on NCI-H460 lung, in the assay on OVCAR-8 ovarian and in the assay on SNB-19 CNS was greater than 100 µM in each case.
For the compound `CCOC(=O)c1c(SC(=O)c2cc(OC)c(OC)c(OC)c2)n(-c2ccccc2)c(=S)n(-c2ccccc2)c1=O`, the TGI in the assay with ACHN renal, in the assay on HCC-2998 colon, in the assay with HCT-15 colon, with HS 578T breast, in the assay with LOX IMVI melanoma and in the assay with M14 melanoma was greater than 100 µM throughout. Also, the TGI in the assay with MDA-MB-435, in the assay with NCI-H460 lung, in the assay on OVCAR-8 ovarian and in the assay on SNB-19 CNS was greater than 100 µM in each case.
With `COC12C=C/C(=C(/C(=O)OCc3ccncn3)C(=O)CCCCCCCCC3(OC)C=C/C(=C(/C(=O)OCc4ccncn4)C(=O)CCCCCCCC1)O3)O2`, the GI50 with ACHN renal was 0.302 µM; with HCC-2998 colon, 0.225 µM; in the assay on HCT-15 colon, 0.278 µM; with HS 578T breast, 0.402 µM; in the assay on LOX IMVI melanoma it was 0.211 µM; in the assay with M14 melanoma, 0.286 µM. Moreover, the GI50 with MDA-MB-435 is 0.194 µM; with NCI-H460 lung it was 0.319 µM; in the assay with OVCAR-8 ovarian it was 0.331 µM; in the assay on SNB-19 CNS it was 0.509 µM. The TGI with ACHN renal stood at 1.14 µM; with HCC-2998 colon, 0.45 µM; in the assay with HCT-15 colon it was 1.12 µM; with HS 578T breast, 5.11 µM; with LOX IMVI melanoma it was 0.503 µM; with M14 melanoma, 3.23 µM. Also, the TGI with MDA-MB-435 is 0.405 µM; in the assay on NCI-H460 lung it was 1.02 µM; in the assay on OVCAR-8 ovarian, 14.9 µM; in the assay on SNB-19 CNS, 17.1 µM.
For `Cc1cc(O)c(C(C)C)cc1NC(=O)Nc1cccc2ccccc12`, the TGI in the assay with ACHN renal worked out at 27.8 µM; in the assay with HCC-2998 colon it was 41 µM; in the assay with HCT-15 colon, 69.1 µM; in the assay on HS 578T breast, 62.6 µM; with LOX IMVI melanoma, 49.9 µM; with M14 melanoma it was 40 µM. Further, the TGI was 31.1 µM in the assay with MDA-MB-435, 41.4 µM with NCI-H460 lung, greater than 100 µM with OVCAR-8 ovarian and 30.2 µM with SNB-19 CNS.
With `Brc1ccc2c(-c3nc(-c4c[nH]c5ccccc45)cs3)c[nH]c2c1`, the TGI with ACHN renal was greater than 100 µM; with HCC-2998 colon, greater than 100 µM; with HCT-15 colon it was greater than 100 µM; in the assay on HS 578T breast, greater than 100 µM; in the assay with LOX IMVI melanoma, greater than 73 µM; in the assay on M14 melanoma it was greater than 100 µM. The TGI in the assay with MDA-MB-435, in the assay on NCI-H460 lung, with OVCAR-8 ovarian and in the assay with SNB-19 CNS was greater than 100 µM each time.
